The record followed here is patent US11046686B2, “Thiadiazole IRAK4 compounds” (Gilead Sciences, Inc., priority 2018, dated 2021).

In general, EC50 refers to the concentration needed to bring the measured effect to its halfway point.

Structures are written as SMILES.

This experiment has as its system TNFα. The experiment can be described thus: IRAK4 Monocyte TNFα Cell Based Assay. To be noted: human monocytes; second part of Table 2, compounds 33-343; unit inferred; read-out: EC50 MONO TNF HTRF. Also noted: species or system human. How it is done: IRAK4 Monocyte TNFα Cell Based Assay Procedure:
The cell suspension was then plated at a density of 5,000 cells/well onto black 384 well Greiner clear bottom plates. Plates were pre-spotted with test compounds and serially diluted in DMSO where 40 nL/well were delivered using the Echo 550 acoustic liquid dispenser (Labcyte®) for a final DMSO concentration of 0.1%. Plated cells were treated with compound for 1 hour at 37° C. Cells were then stimulated with 50 pg/ml of LPS (Sigma) excluding outside columns of plate used for unstimulated cell control wells. Cells were incubated for an additional 4 hours at 37° C. Cells were then spun out of the media and 5 μl of sample were taken and analyzed for total TNFα content using the TR-FRET Human TNFα detection system (CisBio). This system utilizes two labeled antibodies (cryptate and XL665) that bind to two different epitopes of the TNFα molecule and produce FRET signal proportional to the concentration of TNFα in the sample. Detection antibodies are mixed 50:50 and 5 μL were dispensed into each well. Plates were covered with clear seals and incubated at room temp overnight. […] Percent of control was calculated as follows: % Control=100×(Ratiosample−Ratio0% stimulation)/(Ratio100% Stimulation−Ratio0% Stimulation) where unstimulated cells (0% stimulation) were the negative control and stimulated cells (100% stimulation) were used as the positive control.
For orientation: In TR-FRET formats the signal depends on donor and acceptor labels being close together.
`COC(=O)N[C@@H]1[C@@H]2CC[C@H]1CN(c1nnc(-c3cnc(-c4ccc5cc(C#N)cnn45)cc3NC(C)C)s1)C2` [Example 59, methyl ((1R,5S,8s)-3-(5-(6-(3-cyanopyrrolo[1,2-b]pyridazin-7-yl)-4-(isopropylamino)pyridin-3-yl)-1,3,4-thiadiazol-2-yl)-3-azabicyclo[3.2.1]octan-8-yl)carbamate]: the EC50 stood at 14.7 nM.
`CC(C)Nc1cc(-c2ccc3cc(C#N)cnn23)ncc1-c1nnc(N2C[C@H]3CC[C@@H](C2)[C@@H]3N)s1` [Example 60, 7-(5-(5-((1R,5S,8s)-8-amino-3-azabicyclo[3.2.1]octan-3-yl)-1,3,4-thiadiazol-2-yl)-4-(isopropylamino)pyridin-2-yl)pyrrolo[1,2-b]pyridazine-3-carbonitrile]: the EC50 is 8.5 nM.
Regarding `CC(=O)N[C@@H]1CCN(c2nnc(-c3cnc(-c4ccc5cc(C#N)cnn45)cc3NC(C)C)s2)C[C@@H]1O` [Example 63], the EC50 was 13.8 nM.
Consider `CC(=O)N1CCC2(CC1)CN(c1nnc(-c3cnc(-c4ccc5cc(C#N)cnn45)cc3NC(C)C)s1)C2` [Example 67, 7-(5-(5-(7-acetyl-2,7-diazaspiro[3.5]nonan-2-yl)-1,3,4-thiadiazo1-2-yl)-4-(isopropylamino)pyridin-2-yl)pyrrolo[1,2-b]pyridazine-3-carbonitrile], for which the EC50 came to 10.4 nM.
`CC(=O)N[C@@H]1C[C@H]2C[C@@H]1CN2c1nnc(-c2cnc(-c3ccc4cc(C#N)cnn34)cc2NC(C)C)s1` [Example 73, N-((1R,4R,5R)-2-(5-(6-(3-cyanopyrrolo[1,2-]pyridazin-7-yl)-4-(isopropylamino)pyridin-3-yl)-1,3,4-thiadiazol-2-yl)-2-azabicyclo[2.2.1]heptan-5-yl)acetamide]: the half-maximal effective concentration (EC50) came to 64.1 nM.
Under `CC(=O)N1CCC2(CC1)CN(c1nnc(-c3cnc(-c4ccc5cc(C#N)cnn45)cc3NC3COC3)s1)C2` [Example 75, 7-(5-(5-(7-acetyl-2,7-diazaspiro[3.5]nonan-2-yl)-1,3,4-hiadiazol-2-yl)-4-(oxetan-3-ylamino)pyridin-2-yl)pyrrolo[1,2-b]pyridazine-3-carbonitrile] stands 3.2 nM; under `CC(=O)N1CCC2(CC1)CN(c1nnc(-c3cnc(-c4ccc5cc(C#N)cnn45)cc3NC3CCOCC3)s1)C2` [Example 76, 7-(5-(5-(7-acetyl-2,7-diazaspiro[3.5]nonan-2-yl)-1,3,4-hiadiazol-2-yl)-4-((tetrahydro-2H-pyran-4-yl)amino)pyridin-2-yl)pyrrolo[1,2-b]pyridazine-3-carbonitrile], 4.4 nM.
As to `CC(=O)NC1CCC2(CC1)CN(c1nnc(-c3cnc(-c4ccc5cc(C#N)cnn45)cc3N[C@H](C)C#N)s1)C2` [Example 77], the 50% effective concentration (EC50) came to 3.9 nM.
Turning to `CC(=O)NC1CCC2(CC1)CN(c1nnc(-c3cnc(-c4ccc5cc(C#N)cnn45)cc3NC3COC3)s1)C2` [Example 78, N-(2-(5-(6-(3-cyanopyrrolo[1,2-b]pyridazin-7-yl)-4-(oxetan-3-ylamino)pyridin-3-yl)-1,3,4-thiadiazo1-2-yl)-2-azaspiro[3.5]nonan-7-yl)acetamide], the EC50 turned out to be 8.9 nM.
With `CC(C)Nc1cc(-c2ccc3cc(C#N)cnn23)ncc1-c1nnc(C(C)(C)O)s1` [Example 80, 7-(5-(5-(2-hydroxypropan-2-yl)-1,3,4-thiadiazol-2-yl)-4-(isopropylamino)pyridin-2-yl)pyrro1o[1,2-b]pyridazine-3-carbonitrile], the EC50 came out at 114 nM.
Regarding `CC(C)Nc1cc(-c2ccc3cc(C#N)cnn23)ncc1-c1nnc(N2CC3(CCC(C)(O)CC3)C2)s1` [Example 82, 7-(5-(5-(7-hydroxy-7-methyl-2-azaspiro[3.5]nonan-2-yl)-1,3,4-thiadiazo1-2-yl)-4-(isopropylamino)pyridin-2-yl)pyrrolo[1,2-b]pyridazine-3-carbonitrile], the 50% effective concentration (EC50) came to 23.1 nM.
Take `CC(=O)N[C@H]1CC[C@@H](c2nnc(-c3cnc(-c4ccc5cc(C#N)cnn45)cc3NC(C)C)s2)OC1` [Example 84, N-((3S,6S)-6-(5-(6-(3-cyanopyrro1o[1,2-b]pyridazin-7-yl)-4-(isopropylamino)pyridin-3-yl)-1,3,4-thiadiazol-2-yl)tetrahydro-2H-pyran-3-yl)acetamide]: the EC50 was determined as 8.6 nM.
Consider `CC(C)Nc1cc(-c2ccc3cc(C#N)cnn23)ncc1-c1nnc(N2C[C@H]3CC[C@@H](C2)[C@@H]3NC(=O)C(C)(C)O)s1` [Example 85, N-((1R,5S,8s)-3-(5-(6-(3-cyanopyrrolo[1,2-b]pyridazin-7-yl)-4-(isopropylamino)pyridin-3-yl)-1,3,4-thiadiazol-2-yl)-3-azabicyclo[3.2.1]octan-8-yl)-2-hydroxy-2-methylpropanamide], for which the EC50 was found to be 3.3 nM.
As to `C[C@H](C#N)Nc1cc(-c2ccc3cc(C#N)cnn23)ncc1-c1nnc(N2C[C@H]3CC[C@@H](C2)[C@@H]3NC(=O)C(C)(C)O)s1` [Example 86], the EC50 was 0.6 nM.
On to `CC(C)(O)C(=O)N[C@@H]1[C@@H]2CC[C@H]1CN(c1nnc(-c3cnc(-c4ccc5cc(C#N)cnn45)cc3NC3COC3)s1)C2` [Example 87, N-((1R,5S,8s)-3-(5-(6-(3-cyanopyrrolo[1,2-b]pyridazin-7-yl)-4-(oxetan-3-ylamino)pyridin-3-yl)-1,3,4-thiadiazol-2-yl)-3-azabicyclo[3.2.1]octan-8-yl)-2-hydroxy-2-methylpropanamide], for which the concentration for a half-maximal effect (EC50) worked out at 2.1 nM.
For the compound `CC(C)Nc1cc(-c2ccc3cc(C#N)cnn23)ncc1-c1nnc(N2C[C@H]3CC[C@@H](C2)[C@@H]3NC(=O)[C@H]2C[C@](C)(O)C2)s1` [Example 92, (1r,3R)-N-((1R,5S,8s)-3-(5-(6-(3-cyanopyrrolo[1,2-b]pyridazin-7-yl)-4-(isopropylamino)pyridin-3-yl)-1,3,4-thiadiazol-2-yl)-3-azabicyclo[3.2.1]octan-8-yl)-3-hydroxy-3-methylcyclobutane-1-carboxamide], the 50% effective concentration (EC50) was found to be 5 nM.
With `CC(C)Nc1cc(-c2ccc3cc(C#N)cnn23)ncc1-c1nnc(N2C[C@H]3CC[C@@H](C2)[C@@H]3NC(=O)[C@H]2C[C@@](C)(O)C2)s1` [Example 93, (1s,3S)-N-((1R,5S,8s)-3-(5-(6-(3-cyanopyrrolo[1,2-b]pyridazin-7-yl)-4-(isopropylamino)pyridin-3-yl)-1,3,4-thiadiazol-2-yl)-3-azabicyclo[3.2.1]octan-8-yl)-3-hydroxy-3-methylcyclobutane-1-carboxamide], the EC50 is 5.9 nM.
Turning to `CC(C)Nc1cc(-c2ccc3cc(C#N)cnn23)ncc1-c1nnc(N2C[C@H]3CC[C@@H](C2)[C@@H]3NC(=O)C2(C)COC2)s1` [Example 94], the EC50 is 4 nM.
Next, `CC(C)Nc1cc(-c2ccc3cc(C#N)cnn23)ncc1-c1nnc(N2C[C@H]3CC[C@@H](C2)[C@@H]3NC(=O)C2(C)CCOCC2)s1` [Example 95, N-((1R,5S,8s)-3-(5-(6-(3-cyanopyrrolo[1,2-b]pyridazin-7-yl)-4-(isopropylamino)pyridin-3-yl)-1,3,4-thiadiazol-2-yl)-3-azabicyclo[3.2.1]octan-8-yl)-4-methyltetrahydro-2H-pyran-4-carboxamide]: 4.1 nM; `CC(C)Nc1cc(-c2ccc3cc(C#N)cnn23)ncc1-c1nnc(N2C[C@H]3CC[C@@H](C2)[C@@H]3NC(=O)C(C)(C)C(=O)O)s1` [Example 97]: 21.7 nM.
Next, `CC(C)Nc1cc(-c2ccc3cc(C#N)cnn23)ncc1-c1nnc(N2C[C@H]3CC[C@@H](C2)[C@@H]3NC(=O)CN=S(C)(C)=O)s1` [Example 98, N-((1R,5S,8s)-3-(5-(6-(3-cyanopyrrolo[1,2-b]pyridazin-7-yl)-4-(isopropylamino)pyridin-3-yl)-1,3,4-thiadiazol-2-yl)-3-azabicyclo[3.2.1]octan-8-yl)-2-((dimethyl(oxo)-16-sulfanylidene)amino)acetamide]: 3.2 nM.
Under `CC(=O)NC1CCC2(CC1)CN(c1nnc(-c3cnc(-c4ccc5cc(C#N)cnn45)cc3NC3(C)COC3)s1)C2` [Example 99] stands 5.8 nM.
For `CC(C)Nc1cc(-c2ccc3cc(C#N)cnn23)ncc1-c1nnc(N2C[C@H]3CC[C@@H](C2)[C@@H]3NC(=O)C2CCN(C)CC2)s1` [Example 100, N-((1R,5S,8s)-3-(5-(6-(3-cyanopyrrolo[1,2-b]pyridazin-7-yl)-4-(isopropylamino)pyridin-3-yl)-1,3,4-thiadiazol-2-yl)-3-azabicyclo[3.2.1]octan-8-yl)-1-methylpiperidine-4-carboxamide], the EC50 is 2.1 nM.
In the case of `CC(C)(O)C(=O)N[C@@H]1[C@@H]2CC[C@H]1CN(c1nnc(-c3cnc(-c4ccc5cc(C#N)cnn45)cc3NC3CCOCC3)s1)C2` [Example 101, N-((1R,5S,8s)-3-(5-(6-(3-cyanopyrrolo[1,2-b]pyridazin-7-yl)-4-((tetrahydro-2H-pyran-4-yl)amino)pyridin-3-yl)-1,3,4-thiadiazol-2-yl)-3-azabicyclo[3.2.1]octan-8-yl)-2-hydroxy-2-methylpropanamide], the EC50 is 1.2 nM.
As to `CC(C)Nc1cc(-c2ccc3cc(C#N)cnn23)ncc1-c1nnc(N2C[C@H]3CC[C@@H](C2)[C@@H]3NC(=O)C(=O)N=S(C)(C)=O)s1` [Example 103, N1-((lR,5S,8s)-3-(5-(6-(3-cyanopyrrolo[1,2-b]pyridazin-7-yl)-4-(isopropylamino)pyridin-3-yl)-1,3,4-thiadiazol-2-yl)-3-azabicyclo[3.2.1]octan-8-yl)-N2-(dimethyl(oxo)-16-sulfanylidene)oxalamide], the EC50 came out at 1.4 nM.
